Tests used:
PI3Kalpha = PI3Kalpha (Homo sapiens, UniProt P42336); test: Biochemical PI3Kalpha assay (neomycin SPA, lipid phosphorylation); conditions: human recombinant GST-PI3K
Procedure: (§1) The efficacy of the compounds according to the invention in the inhibition of PI3K-induced lipid phosphorylation can be investigated in the following binding assay. The assay combines scintillation proximity assay (SPA) technology (Amersham) with the ability of neomycin (a polycationic antibiotic) to bind phospholipids with high affinity and specificity. […] The coating of SPA beads with neomycin allows the detection of phosphorylated lipid substrates after incubation with recombinant PI3K and radioactive ATP in the same well by trapping the radioactive phospholipids by the SPA beads owing to their specific binding to neomycin. […] After incubation at room temperature for 120 minutes with gentle stirring, the reaction was stopped by addition of 200 μl of a solution comprising 250 μg of neomycin-coated PVT-SPA beads, ATP 60 mM and EDTA 6.2 mM in PBS. The assay is incubated at room temperature for a further 60 minutes with gentle stirring in order to enable binding of the phospholipids to the neomycin-SPA beads. After precipitation of the neomycin-coated PVT-SPA beads over 5 minutes at 1500×g, radioactive Ptdlns(3)P is quantified by scintillation counting in a Wallac Micro-Beta™ plate counter.

PI3Kbeta = PI3Kbeta (Homo sapiens, UniProt P42338); test: Biochemical PI3Kbeta assay (neomycin SPA, lipid phosphorylation); conditions: human recombinant GST-PI3K
PI3Kbeta, sequence (P42338 whole entry): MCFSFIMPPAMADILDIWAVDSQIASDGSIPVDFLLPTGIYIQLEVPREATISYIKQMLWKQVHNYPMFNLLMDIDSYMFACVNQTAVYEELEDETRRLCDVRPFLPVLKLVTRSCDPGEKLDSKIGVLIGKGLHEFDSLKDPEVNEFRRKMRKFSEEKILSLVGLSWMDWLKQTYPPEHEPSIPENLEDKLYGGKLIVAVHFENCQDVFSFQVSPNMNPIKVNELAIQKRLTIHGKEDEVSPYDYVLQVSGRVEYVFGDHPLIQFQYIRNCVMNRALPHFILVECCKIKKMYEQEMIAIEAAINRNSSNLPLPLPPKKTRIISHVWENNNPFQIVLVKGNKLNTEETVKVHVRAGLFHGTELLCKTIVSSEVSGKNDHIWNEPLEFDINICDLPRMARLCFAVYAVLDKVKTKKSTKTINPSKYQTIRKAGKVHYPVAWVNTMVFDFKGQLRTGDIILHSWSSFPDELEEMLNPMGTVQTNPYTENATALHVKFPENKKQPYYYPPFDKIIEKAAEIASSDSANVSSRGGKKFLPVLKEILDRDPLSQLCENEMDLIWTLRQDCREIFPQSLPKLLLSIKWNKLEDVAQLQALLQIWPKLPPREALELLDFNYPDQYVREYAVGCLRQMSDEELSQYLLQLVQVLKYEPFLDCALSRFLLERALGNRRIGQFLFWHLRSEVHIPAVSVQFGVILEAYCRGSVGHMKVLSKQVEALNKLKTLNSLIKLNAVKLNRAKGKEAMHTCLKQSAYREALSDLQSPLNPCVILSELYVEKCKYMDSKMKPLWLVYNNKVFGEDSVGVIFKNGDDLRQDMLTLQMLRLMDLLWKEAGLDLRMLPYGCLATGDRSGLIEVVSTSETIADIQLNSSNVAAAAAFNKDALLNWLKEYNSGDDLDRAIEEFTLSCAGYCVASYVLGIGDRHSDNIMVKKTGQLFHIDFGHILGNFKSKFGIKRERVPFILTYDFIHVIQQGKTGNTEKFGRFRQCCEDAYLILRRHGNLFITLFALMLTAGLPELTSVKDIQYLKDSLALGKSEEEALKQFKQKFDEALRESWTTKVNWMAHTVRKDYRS
PI3Kbeta, sequence (P27986 whole entry partner): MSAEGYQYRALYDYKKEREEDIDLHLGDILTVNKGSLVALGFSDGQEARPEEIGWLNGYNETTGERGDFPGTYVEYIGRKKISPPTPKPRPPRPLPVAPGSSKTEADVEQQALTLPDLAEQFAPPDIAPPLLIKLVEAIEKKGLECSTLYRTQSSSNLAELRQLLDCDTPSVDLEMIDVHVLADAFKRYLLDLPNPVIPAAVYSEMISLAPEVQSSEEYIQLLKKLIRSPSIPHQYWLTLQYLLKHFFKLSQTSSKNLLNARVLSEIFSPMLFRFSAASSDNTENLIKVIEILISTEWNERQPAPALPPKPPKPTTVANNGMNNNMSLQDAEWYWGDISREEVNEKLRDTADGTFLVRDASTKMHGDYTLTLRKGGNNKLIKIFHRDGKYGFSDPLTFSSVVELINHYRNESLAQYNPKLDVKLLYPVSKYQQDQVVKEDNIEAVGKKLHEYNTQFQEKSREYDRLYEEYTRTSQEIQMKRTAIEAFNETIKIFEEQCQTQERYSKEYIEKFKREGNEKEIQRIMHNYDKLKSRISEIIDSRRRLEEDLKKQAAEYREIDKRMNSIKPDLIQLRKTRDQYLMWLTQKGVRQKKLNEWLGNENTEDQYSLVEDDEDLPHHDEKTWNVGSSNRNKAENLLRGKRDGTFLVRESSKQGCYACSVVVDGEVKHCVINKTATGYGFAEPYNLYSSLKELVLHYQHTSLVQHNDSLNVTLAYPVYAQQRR
Procedure: as §1

[1] = biological target: recombinant PI3Kalpha (shortened form of the catalytic subunit) (Homo sapiens, UniProt P42336); test: BIACORE PI3K binding assay (SPR); conditions: 25° C.
recombinant PI3Kalpha (shortened form of the catalytic subunit), sequence (P42336 151-1068 limits assumed): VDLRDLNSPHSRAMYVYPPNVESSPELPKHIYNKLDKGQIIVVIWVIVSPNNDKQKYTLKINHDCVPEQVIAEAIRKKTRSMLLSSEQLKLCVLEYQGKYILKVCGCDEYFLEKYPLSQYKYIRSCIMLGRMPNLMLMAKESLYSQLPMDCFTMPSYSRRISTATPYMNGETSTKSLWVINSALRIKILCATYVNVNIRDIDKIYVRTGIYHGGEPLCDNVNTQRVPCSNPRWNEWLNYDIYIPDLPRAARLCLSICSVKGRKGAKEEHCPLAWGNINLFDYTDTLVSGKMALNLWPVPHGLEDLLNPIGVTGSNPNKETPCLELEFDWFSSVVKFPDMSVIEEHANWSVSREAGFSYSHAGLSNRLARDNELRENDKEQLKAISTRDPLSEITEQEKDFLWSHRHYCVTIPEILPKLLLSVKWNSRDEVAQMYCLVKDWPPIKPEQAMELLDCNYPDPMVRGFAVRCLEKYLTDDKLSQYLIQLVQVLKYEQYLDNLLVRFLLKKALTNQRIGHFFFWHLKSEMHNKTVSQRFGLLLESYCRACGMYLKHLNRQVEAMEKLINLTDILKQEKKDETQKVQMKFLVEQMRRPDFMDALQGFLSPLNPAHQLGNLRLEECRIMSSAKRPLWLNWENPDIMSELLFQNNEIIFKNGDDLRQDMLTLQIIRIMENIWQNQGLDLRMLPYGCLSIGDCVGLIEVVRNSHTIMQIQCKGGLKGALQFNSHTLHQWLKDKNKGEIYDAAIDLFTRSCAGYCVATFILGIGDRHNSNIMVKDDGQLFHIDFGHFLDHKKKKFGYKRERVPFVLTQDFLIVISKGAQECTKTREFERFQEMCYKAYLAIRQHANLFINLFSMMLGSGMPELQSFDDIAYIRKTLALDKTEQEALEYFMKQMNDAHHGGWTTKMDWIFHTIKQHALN
Procedure: SPR measurements of the binding affinities and binding kinetics on PI3Kalpha surfaces with the aid of Biacore systems. The experiments are carried out on a Biacore S51 “Compound Characterization” or a Biacore T100 instrument utilising the default application “Kinetics/Affinity” Experimental conditions: recombinant PI3Kalpha (shortened form of the catalytic subunit, missing N terminal from about 100 to 150 aa, Mw about 110 kDa, prepared by Proteros Biostructures GmbH) is immobilised on Biacore CM5 chips (25° C., flow rate: 10 μl/min, utilising amine coupling at pH 7.40—Biacore Standard protocol). PI3Kalpha is employed in concentrations between 10 and 25 μg/ml. Depending on the duration of the injection time, immobilisation levels from 1700 to 11000 RU are achieved. The substances to be measured are added in the form of a titration series. The substance concentration is doubled for each subsequent injection. 10 different substance concentrations which cover a 500-fold dilution range are usually injected. […] Kinetic titration experiments are carried out at 25° C. with a flow rate of 30 μl/min, the sample contact time is 180 s, and the dissociation time is 240 s in a running buffer (20 mM HEPES pH7.40, 150 mM NaCl, 5 mM MgCl2, 1 mM DTT, 0.1 mM EDTA, 0.05% Tween 20) comprising 2% of DMSO. Buffer injections (as double references) identical to the sample injections are carried out in each case at the beginning of a continuous series. Solvent correction cycles (eight correction points, 1.4%-2.8% DMSO) are carried out at equal intervals. In order to condition the surface, at least five start-up cycles (buffer injections) are carried out. Data points are collected with a sample rate of 10 Hz. Surface regeneration is carried out after each measurement cycle, apart from after the solvent correction runs. For this purpose, two times 100 mM NaHCO3 pH 8.60 are injected for 30 sec. Data sets are processed and analysed using the Biacore S51 Evaluation software, version 1.2.1, or Biacore T100 Evaluation, version 2.0. Solvent-corrected and double-referenced association and dissociation phase data are adapted to a simple 1:1 interaction model with mass transport limitations.

[2] = tested on: PI3K-dependent phosphorylation of PKB at Serin 473 in PC3 cells; test: Cellular PI3K assay (P-S473-PKB Luminex assay in PC3 cells); type: cell-based; conditions: Homo sapiens, PC-3, 0.5 h; PC3 cells, 30 min, serum-free, P-S473-PKB; read-out: IC50 (cell)
Procedure: The cellular assay for determination of the P-S473-PKB level is carried out as a Luminex assay in 96-well format in PC3 cells.
PC3 cells are sown out with 20,000 cells per well in 100 μl medium (45% […]/45% Ham's F12/10% FCS) and incubated on the following day for 30 min with a serial dilution of the test substance (7 concentrations) under serum-free conditions. The cells are subsequently lysed using 90 μl of lysis buffer (20 mM Tris/HCl pH 8.0, 150 mM NaCl, 1% NP40, 10% glycerol, 1% phosphatase inhibitor I, 1% phosphatase inhibitor II, 0.1% protease inhibitor cocktail III, 0.01% benzonase) per well, and the lysates are separated off from insoluble cell constituents by means of centrifugation through a 96-well filter plate (0.65 μm). The lysates are incubated overnight at 4° C. with shaking with Luminex beads to which an anti-total PKB antibody is coupled. The detection is carried out on the following day by addition of a P-S473-PKB antibody and a species-specific PE-labelled secondary antibody. The detection of P-S473-PKB is carried out by measurement in a Luminex100 instrument by determination of 100 events per cavity in a measurement time of 60 sec.

DNA-PK protein complex = DNA-PK protein complex (Homo sapiens, UniProt P78527); test: Biochemical DNA-PK assay (FlashPlate)
Procedure: The kinase assay is carried out in […] microtitre FlashPlates®, coated with streptavidin. […] The reaction is stopped by addition of 50 μl/well of 200 mM EDTA. After incubation for 30 minutes, the liquids are removed at room temperature. Each well is washed three times with 100 μl of 0.9% NaCl solution. Non-specific reaction (blank) is determined using a proprietary kinase inhibitor (10 μM). The radioactivity is measured by means of a Topcount. […] Todd Eary, J. G. Schiro, H. Huang, L. E. Burgess, E. A. Kesicki, and J. Halbrook.

PI3Kalpha, sequence (P42336 whole entry): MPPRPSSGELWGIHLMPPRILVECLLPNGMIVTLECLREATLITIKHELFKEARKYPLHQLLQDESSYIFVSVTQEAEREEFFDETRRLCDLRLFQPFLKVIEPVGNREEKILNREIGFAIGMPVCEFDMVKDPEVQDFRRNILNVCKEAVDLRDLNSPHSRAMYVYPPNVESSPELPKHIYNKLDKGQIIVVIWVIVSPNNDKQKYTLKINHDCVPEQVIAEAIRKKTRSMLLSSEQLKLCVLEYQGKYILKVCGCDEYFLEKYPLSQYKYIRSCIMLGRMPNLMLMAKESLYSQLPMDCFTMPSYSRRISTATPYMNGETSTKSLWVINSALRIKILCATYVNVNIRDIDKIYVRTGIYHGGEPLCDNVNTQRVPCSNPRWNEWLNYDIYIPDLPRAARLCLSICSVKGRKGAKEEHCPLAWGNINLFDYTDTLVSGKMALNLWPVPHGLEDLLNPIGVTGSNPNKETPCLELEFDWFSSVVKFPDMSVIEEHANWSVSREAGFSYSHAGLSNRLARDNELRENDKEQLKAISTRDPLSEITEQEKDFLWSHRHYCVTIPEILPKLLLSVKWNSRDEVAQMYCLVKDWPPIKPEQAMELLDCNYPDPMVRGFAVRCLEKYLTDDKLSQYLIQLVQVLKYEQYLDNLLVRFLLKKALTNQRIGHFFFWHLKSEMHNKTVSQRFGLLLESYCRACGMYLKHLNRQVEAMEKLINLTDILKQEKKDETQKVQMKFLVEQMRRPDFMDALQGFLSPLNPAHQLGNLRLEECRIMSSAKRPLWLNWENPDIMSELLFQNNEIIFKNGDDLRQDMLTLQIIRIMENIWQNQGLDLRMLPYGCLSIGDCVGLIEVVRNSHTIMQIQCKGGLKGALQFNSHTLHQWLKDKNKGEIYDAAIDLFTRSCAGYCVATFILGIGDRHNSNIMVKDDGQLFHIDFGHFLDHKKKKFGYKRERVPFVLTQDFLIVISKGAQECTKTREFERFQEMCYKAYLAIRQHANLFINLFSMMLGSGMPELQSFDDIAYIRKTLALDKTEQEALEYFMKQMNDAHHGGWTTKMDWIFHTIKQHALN
PI3Kalpha, sequence (P27986 whole entry partner): as the sequence (P27986 whole entry partner) above

SMILES | IC50 (PI3Kalpha) | IC50 (PI3Kbeta) | Kd [1] | IC50 [2] | IC50 (DNA-PK protein complex)
Cn1cc(-c2cc(-c3cnc(N)c(C#N)c3)ccn2)n(-c2ccc(N3CCNCC3)c(C(F)(F)F)c2)c1=O [Example A65, 6-Amino-2′-[1-methyl-2-oxo-3-(4-piperazin-1-yl-3-trifluoromethylphenyl)-2,3-dihydro-1H-imidazol-4-yl]-[3,4′]bipyridinyl-5-carbonitrile] | 100 to 10000 nM | 100 to 10000 nM | 0.1 to 100 nM | 100 to 10000 nM | 0.1 to 100 nM
Cn1cc(-c2cc(-c3cnc4[nH]ccc4c3)ccn2)n(-c2cccc(Oc3ccccc3)c2)c1=O [Example A90, 1-Methyl-3-(3-phenoxyphenyl)-4-[4-(1H-pyrrolo[2,3-b]pyridin-5-yl)pyridin-2-yl]-1,3-dihydroimidazol-2-one] | 100 to 10000 nM | 100 to 10000 nM | 0.1 to 100 nM | 0.1 to 100 nM | 0.1 to 100 nM
COC(=O)c1c[nH]c2ncc(-c3ccnc(-c4cn(C)c(=O)n4-c4ccc(C(C)(C)C#N)cc4)c3)cc12 [Example A29, Methyl 5-(2-{3-[4-(cyanodimethylmethyl)phenyl]-1-methyl-2-oxo-2,3-dihydro-1H-imidazol-4-yl}pyridin-4-yl)-1H-pyrrolo[2,3-b]pyridine-3-carboxylate] | 0.1 to 100 nM | 100 to 10000 nM | 0.1 to 100 nM | 100 to 10000 nM | 0.1 to 100 nM
Cn1cc(-c2cc(-c3ccc(NS(C)(=O)=O)cc3)ccn2)n(-c2ccc(N3CCNCC3)c(C(F)(F)F)c2)c1=O [Example A62, N-(4-{2-[1-Methyl-2-oxo-3-(4-piperazin-1-yl-3-trifluoromethylphenyl)-2,3-dihydro-1H-imidazol-4-yl]pyridin-4-yl}phenyl)methanesulfonamide] | > 10000 nM | > 10000 nM | > 10000 nM | > 10000 nM | 0.1 to 100 nM
Cn1cc(-c2cc(-c3cnc4[nH]ccc4c3)ccn2)n(-c2ccccc2C#N)c1=O [Example A69, 2-{3-Methyl-2-oxo-5-[4-(1H-pyrrolo[2,3-b]pyridin-5-yl)pyridin-2-yl]-2,3-dihydroimidazol-1-yl}benzonitrile] | > 10000 nM | > 10000 nM | 100 to 10000 nM | > 10000 nM | > 10000 nM
CCc1cccc(-n2c(-c3cc(-c4cnc5[nH]ccc5c4)ccn3)cn(C)c2=O)c1 [Example A66, 3-(3-Ethylphenyl)-1-methyl-4-[4-(1H-pyrrolo[2,3-b]pyridin-5-yl)pyridin-2-yl]-1,3-dihydroimidazol-2-one] | > 10000 nM | > 10000 nM | > 10000 nM | > 10000 nM | > 10000 nM
Cn1cc(-c2cc(-c3cnc4[nH]cnc4c3)ccn2)n(-c2ccc(C(C)(C)C#N)cc2)c1=O [Example A38, 2-(4-{5-[4-(3H-Imidazo[4,5-b]pyridin-6-yl)pyridin-2-yl]-3-methyl-2-oxo-2,3-dihydroimidazol-1-yl}phenyl)-2-methylpropionitrile] | 0.1 to 100 nM | 100 to 10000 nM | 0.1 to 100 nM | 100 to 10000 nM | 100 to 10000 nM
Cn1cc(-c2cc(-c3cnc(N)c(-c4ccccc4)c3)ccn2)n(-c2ccc(C(C)(C)C#N)cc2)c1=O [Example A84, 2-{4-[5-(6-Amino-5-phenyl-[3,4′]bipyridinyl-2′-yl)-3-methyl-2-oxo-2,3-dihydroimidazol-1-yl]phenyl}-2-methylpropionitrile] | 0.1 to 100 nM | 100 to 10000 nM | 0.1 to 100 nM | 100 to 10000 nM | 0.1 to 100 nM
Cn1cc(-c2cc(-c3cnc4[nH]ccc4c3)ccn2)n(-c2ccccc2C(F)(F)F)c1=O [Example A67, 1-Methyl-4-[4-(1H-pyrrolo[2,3-b]pyridin-5-yl)pyridin-2-yl]-3-(2-trifluoromethylphenyl)-1,3-dihydroimidazol-2-one] | 100 to 10000 nM | 100 to 10000 nM | 100 to 10000 nM | 100 to 10000 nM | 0.1 to 100 nM
CN1CCN(c2cc(C#N)cc(-n3c(-c4cc(-c5cnc6[nH]ccc6c5)ccn4)cn(C)c3=O)c2)CC1 [Example A98, 3-{3-Methyl-2-oxo-5-[4-(1H-pyrrolo[2,3-b]pyridin-5-yl)pyridin-2-yl]-2,3-dihydro-imidazol-1-yl}-5-(4-methylpiperazin-1-yl)benzonitrile] | 100 to 10000 nM | 100 to 10000 nM | 100 to 10000 nM | > 10000 nM | 100 to 10000 nM
COc1ccc(-c2ccnc(-c3c[nH]c(=O)n3-c3ccc(N4CCNCC4)c(C(F)(F)F)c3)c2)cn1 [Example A4, 5-(6-Methoxy-[3,4′]bipyridinyl-2′-yl)-1-(4-piperazin-1-yl-3-trifluoromethylphenyl)-1,3-dihydroimidazol-2-one] | 100 to 10000 nM | 100 to 10000 nM | 100 to 10000 nM | 100 to 10000 nM | 100 to 10000 nM
CC(C)(C#N)c1ccc(-n2c(-c3cc(-c4cnc5[nH]ccc5c4)ccn3)c[nH]c2=O)cc1 [Example A28, 2-Methyl-2-(4-{2-oxo-5-[4-(1H-pyrrolo[2,3-b]pyridin-5-yl)pyridin-2-yl]-2,3-dihydroimidazol-1-yl}phenyl)propionitrile] | 0.1 to 100 nM | 100 to 10000 nM | 0.1 to 100 nM | 100 to 10000 nM | 0.1 to 100 nM
CN1CCN(c2ccc(-n3c(-c4cc(-c5cnc6[nH]ccc6c5)ccn4)cn(C)c3=O)cc2C#N)CC1 [Example A83, 5-{3-Methyl-2-oxo-5-[4-(1H-pyrrolo[2,3-b]pyridin-5-yl)pyridin-2-yl]-2,3-dihydroimidazol-1-yl}-2-(4-methylpiperazin-1-yl)benzonitrile] | 100 to 10000 nM | 100 to 10000 nM | 0.1 to 100 nM | 100 to 10000 nM | 100 to 10000 nM
Cn1cc(-c2cc(-c3ccc4[nH]ccc4c3)ccn2)n(-c2ccc(N3CCNCC3)c(C(F)(F)F)c2)c1=O [Example A57, 4-[4-(1H-Indol-5-yl)pyridin-2-yl]-1-methyl-3-(4-piperazin-1-yl-3-trifluoromethyl-phenyl)-1,3-dihydroimidazol-2-one] | 100 to 10000 nM | 100 to 10000 nM | 100 to 10000 nM | 100 to 10000 nM | 100 to 10000 nM
